Laboratory results as given in BindingDB's records for doi:10.1016/j.bmcl.2011.12.067 (Dalian University of Technology, 2012).

Each compound was assayed against Epidermal growth factor receptor (Homo sapiens, UniProt P00533) (assay: Inhibition of wild-type EGFR expressed using baculovirus expression system by ELISA).
Epidermal growth factor receptor, sequence (P00533 whole entry): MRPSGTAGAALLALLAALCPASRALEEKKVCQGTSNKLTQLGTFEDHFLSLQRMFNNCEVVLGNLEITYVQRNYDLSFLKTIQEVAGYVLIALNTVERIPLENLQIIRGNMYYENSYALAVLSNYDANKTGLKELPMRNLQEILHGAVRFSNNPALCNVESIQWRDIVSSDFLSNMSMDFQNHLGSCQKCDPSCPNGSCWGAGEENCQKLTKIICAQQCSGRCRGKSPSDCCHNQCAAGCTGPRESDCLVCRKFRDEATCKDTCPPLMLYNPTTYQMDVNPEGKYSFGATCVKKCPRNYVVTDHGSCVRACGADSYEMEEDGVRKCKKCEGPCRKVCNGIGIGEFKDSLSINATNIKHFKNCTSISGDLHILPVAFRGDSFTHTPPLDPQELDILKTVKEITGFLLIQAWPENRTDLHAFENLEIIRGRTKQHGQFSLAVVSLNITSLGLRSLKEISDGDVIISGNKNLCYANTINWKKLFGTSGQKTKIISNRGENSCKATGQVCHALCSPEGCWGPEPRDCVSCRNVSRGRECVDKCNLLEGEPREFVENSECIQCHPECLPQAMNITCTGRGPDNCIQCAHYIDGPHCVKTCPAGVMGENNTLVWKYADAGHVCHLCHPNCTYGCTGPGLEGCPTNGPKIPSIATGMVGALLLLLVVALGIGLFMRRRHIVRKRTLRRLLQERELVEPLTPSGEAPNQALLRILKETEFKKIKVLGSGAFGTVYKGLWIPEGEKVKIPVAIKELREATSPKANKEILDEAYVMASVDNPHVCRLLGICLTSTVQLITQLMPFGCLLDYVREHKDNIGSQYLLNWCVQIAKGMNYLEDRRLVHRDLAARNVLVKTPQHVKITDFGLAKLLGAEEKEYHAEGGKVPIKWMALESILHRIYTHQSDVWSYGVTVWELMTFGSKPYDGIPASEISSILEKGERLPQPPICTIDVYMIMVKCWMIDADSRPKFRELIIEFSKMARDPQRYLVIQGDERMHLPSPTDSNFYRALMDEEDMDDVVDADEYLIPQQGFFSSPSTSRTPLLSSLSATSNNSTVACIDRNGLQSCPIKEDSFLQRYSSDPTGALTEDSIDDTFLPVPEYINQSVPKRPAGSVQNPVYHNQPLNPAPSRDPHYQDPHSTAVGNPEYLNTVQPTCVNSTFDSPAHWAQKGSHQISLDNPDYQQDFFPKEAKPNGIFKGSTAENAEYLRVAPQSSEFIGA

IC50, > 100 µM:
CNc1nc(N=NCc2ccc(OC)cc2)nc(Nc2ccccc2)n1, CNc1nc(N=NCc2ccc(O)cc2)nc(Nc2ccccc2)n1, Cn1cc(NC(=O)CN=O)c(=O)n1-c1ccccc1
